{"source": "patent US9957236B2", "about": "“Selective inhibitors interfering with fibroblast growth factor receptor and FRS2 interaction for the prevention and treatment of cancer and other diseases” (LIMITED LIABILITY COMPANY “RUSSIAN PHARMACEUTICAL …, priority 2014, dated 2018)", "key": {"[1]": {"system": "SUM-52 cells", "experiment": "Proliferation of SUM-52 cells expressing FGFR2 IIIb", "format": "cell-based, human", "details": "SUM-52 (FGFR2 IIIb), RPT835 1 micron, FGF-1 100 ng/ml", "method": "The research assessed the influence of inhibitor RPT835 determined by formula II of this invention, intervention with interaction of FGFR2 represented by two most frequent isoforms IIIb and IIIc with FRS2. For this, human cell line of embryonal osteoblasts (hFOB) expressing only FGFR2 […], and human cell line of breast cancer SUM-52 expressing FGFR2 IIIb (all main versions of isoform—C1, C2, C3) were chosen.\nCells were divided into the groups: • 1a) hFOB • 1b) hFOB, stimulating FGF-1 (100 ng/ml) • 1c) hFOB, cultivation with RPT835 (1 micron) and stimulation of FGF-1 (100 ng/ml) • 2a) SUM-52 • 2b) SUM-52, stimulation of FGF-1 (100 ng/ml) • 2c) SUM-52, cultivation with RPT835 (1 micron) and stimulation of FGF-1 (100 ng/ml)"}, "[2]": {"system": "triple negative breast cancer HS578T", "experiment": "Tumor growth of HS578T xenograft in nude mice", "format": "in vivo", "details": "for Slowdown of tumor growth: 30 mg/kg daily; for average size of tumor: 30 mg/kg daily through a stomach tube", "method": "Females of immunodeficient mice (nude) at the age of 8 weeks were administered 2×10^6 tumor cells of human cell lines with various expression of FGFR2: • cell line of triple-negative breast cancer SUM52PE strongly expressing FGFR2 (purchased from Asterand, Inc. (Detroit, Mich.) • cell line of triple negative breast cancer HS578T weakly expressing FGFR2 (purchased from ATCC (CRL-125) • cell line of non-small cell lung cancer NCI-H226 not expressing FGFR2 (purchased from ATCC (CRL-5826)\nAfter the tumor growth got established (1 mm^3), the mice were divided into control and treatment groups in accordance with the tumor type.\nControl group 2 (N=10): HS578T, administration of water through a stomach tube, daily.\nTreatment group 2 (N=10): HS578T, administration of inhibitor RPT835 through a stomach tube in a dose of 30 mg/kg, daily.\nSize of tumor and weight of animals were measured every 3 day. The mice underwent euthanasia when the tumor reached the size of 2,000 mm^3 or on the 60 day of the experiment."}, "[3]": {"system": "angiogenesis stimulated by bFGF", "experiment": "Matrigel implant angiogenesis stimulated by bFGF", "format": "in vivo, mice", "method": "Eighteen hybrid mice of the 1 generation F1 (C57B1/6×DBA/2), males with a weight of 22-30 g are used in the research. The mice (nomenclature number M02.13.00011) were received from a branch of nursery “Stolbovaya”. The method described earlier was used in the experiment [Passaniti A., 1992]. The control and experiment groups had at least 3 mice. Aliquots (1,000 mcl) of Matrigel (BD Biosciences) containing heparin 60 conventional units/ml, VEGF (200 ng/ml, BD Biosciences) or bFGF (100 ng/ml, BD Biosciences) were prepared on ice. Matrigel containing heparin 60 conventional units/ml was used as negative control. Matrigel was injected in the mice subcutaneously into the side part of the back. After injection, Matrigel quickly forms single, hard gel-like implant. A weight of the inhibitor was dissolved in DMSO to concentration of 10^−2M. Aliquots were frozen down to −20° C. and unfrozen immediately before injection. Refreezing of the solution was not allowed. The tested and standard objects were administered intraperitoneally on the 0, 3 and 6 day of Matrigel impintation: Bevacizumab in a dose of 10 mg/kg and RPT835-15 mg/kg. Seven days after administration of Matrigel, the mice were put into sleep with diethyl ether to remove the implant. The implants were fixed for 24-36 hours in 10% neutral formalin and enclosed in paraffin for further histological research."}, "[4]": {"system": "SVEC-4-10 endothelial cells", "experiment": "Crystal Violet proliferation assay, SVEC-4-10", "format": "cell-based", "details": "SVEC-4-10, strongly expresses FGFR2; bFGF 100 ng/ml, 7 days", "text": "This research used additional cell lines: SKOV3 (ovarian cancer, ATCC # HTB-77), HS578T (breast cancer, ATCC # HTB-126), T47D (breast cancer, ATCC #HTB-1336), modified line of non-small cells lung cancer A549, line of metastatic melanoma of skin Mel Kor (RF Patent No. 2287578), and additional study of antiangiogenic activity—cell line SVEC-4-10 (endothelial cells, ATCC #CRL-2181).\nThe cells were cultivated in environment RPMI-1640 (PANECO) (SKOV3, HS578T, T47D, Mel-Kor) or DMEM (PANECO) (SVEC-4-10) containing 10% of embryonal serum cattle (FCS, HyClone), 2 mM glutamine (PANECO), antibiotics (100 IU/mL penicillin and […] streptomycin (all PANECO)) at 37° C. and 5% CO2. Cells at 70-80% monolayer were used for the experiments.\nThe cells were planted in low density (30 t of cells/ml) in triplets on a 96-cavity plate in an environment containing 0.1% of FCS serum. […] Growth of cells was determined by the modified “Crystal Violet mitogenic method” for 7 days after the experiment start. […] The dye was dissolved in ethanol and measured on a spectrophotometer at 540-560 nm. The curve of cell proliferative activity inhibition was built by the dependence of the percent of the cell quantity (Y axis) on concentration of inhibitor RPT835 in the cavity of the plate (X axis). […]"}, "[5]": {"experiment": "Toxicity assessment in the in vivo studies of Example 13", "details": "nude mice, 30 mg/kg daily through a stomach tube", "method": "Toxicity of inhibitor RPT835 was assessed in in vivo studies described in Example 13. According to the standard procedure, all undesirable events were assessed, as well as loss of weight by animals, when the inhibitor is used compared to the control group."}, "[6]": {"details": "Matrigel + bFGF, 15 mg/kg intraperitoneally day 0, 3, 6, p<0.001"}}, "data": [{"compound": "Cc1cc([N+](=O)[O-])c(NS(=O)(=O)c2cccc(C(=O)O)c2)cc1-c1cccnc1", "note": "[RPT835, 3-(N-(4-methyl-2-nitro-5-(pyridin-3-yl)phenyl)sulfamoyl)benzoic acid]", "values": [{"measurement": "proliferation of cells", "setting": "[1]", "value": "reliably suppressed proliferation"}, {"measurement": "Slowdown of tumor growth", "setting": "[2]; 31st day", "value": 33.2, "unit": "%"}, {"measurement": "average size of tumor", "setting": "[2]; 31st day", "value": "703±89.1", "unit": "mm3"}, {"measurement": "Slowdown of tumor growth", "setting": "[2]; 40th day", "value": 30.6, "unit": "%"}, {"measurement": "average size of tumor", "setting": "[2]; 40th day, P=0.01", "value": "1,104±162.2 mm3"}, {"measurement": "decrease of number of functional micro-vessels compared to the control group", "setting": "[3]; [6]", "value": "more than 2 fold"}, {"measurement": "decrease of number of migrated cells compared to the control group", "setting": "[3]; [6]", "value": "more than 2 fold"}, {"measurement": "decrease of number of tubular structures compared to the control group", "setting": "[3]; Matrigel + bFGF, 15 mg/kg intraperitoneally day 0, 3, 6, p=0.016", "value": "more than 2 fold"}, {"measurement": "angiogenesis stimulated by bFGF", "setting": "[3]; Matrigel implants in mice, intraperitoneally day 0, 3, 6, RPT835 15 mg/kg, Bevacizumab 10 mg/kg", "value": "effectively inhibited"}, {"measurement": "inhibition of proliferative activity", "setting": "[4]", "value": "maximum inhibiting effect"}, {"measurement": "weight loss and undesirable side effects of the therapy", "setting": "[5]", "value": "Neither weight loss, nor any undesirable side effects"}]}]}
